{
  "source": "patent US20180237441A1",
  "about": "“Chemical Compounds” (GlaxoSmithKline Intellectual Property (No.2) Limited, priority 2015, published 2018)",
  "data": [
    {"molecular_target": "T1, PERK (Homo sapiens, UniProt Q9NZJ5)", "T1 sequence (Q9NZJ5 30-1116)": "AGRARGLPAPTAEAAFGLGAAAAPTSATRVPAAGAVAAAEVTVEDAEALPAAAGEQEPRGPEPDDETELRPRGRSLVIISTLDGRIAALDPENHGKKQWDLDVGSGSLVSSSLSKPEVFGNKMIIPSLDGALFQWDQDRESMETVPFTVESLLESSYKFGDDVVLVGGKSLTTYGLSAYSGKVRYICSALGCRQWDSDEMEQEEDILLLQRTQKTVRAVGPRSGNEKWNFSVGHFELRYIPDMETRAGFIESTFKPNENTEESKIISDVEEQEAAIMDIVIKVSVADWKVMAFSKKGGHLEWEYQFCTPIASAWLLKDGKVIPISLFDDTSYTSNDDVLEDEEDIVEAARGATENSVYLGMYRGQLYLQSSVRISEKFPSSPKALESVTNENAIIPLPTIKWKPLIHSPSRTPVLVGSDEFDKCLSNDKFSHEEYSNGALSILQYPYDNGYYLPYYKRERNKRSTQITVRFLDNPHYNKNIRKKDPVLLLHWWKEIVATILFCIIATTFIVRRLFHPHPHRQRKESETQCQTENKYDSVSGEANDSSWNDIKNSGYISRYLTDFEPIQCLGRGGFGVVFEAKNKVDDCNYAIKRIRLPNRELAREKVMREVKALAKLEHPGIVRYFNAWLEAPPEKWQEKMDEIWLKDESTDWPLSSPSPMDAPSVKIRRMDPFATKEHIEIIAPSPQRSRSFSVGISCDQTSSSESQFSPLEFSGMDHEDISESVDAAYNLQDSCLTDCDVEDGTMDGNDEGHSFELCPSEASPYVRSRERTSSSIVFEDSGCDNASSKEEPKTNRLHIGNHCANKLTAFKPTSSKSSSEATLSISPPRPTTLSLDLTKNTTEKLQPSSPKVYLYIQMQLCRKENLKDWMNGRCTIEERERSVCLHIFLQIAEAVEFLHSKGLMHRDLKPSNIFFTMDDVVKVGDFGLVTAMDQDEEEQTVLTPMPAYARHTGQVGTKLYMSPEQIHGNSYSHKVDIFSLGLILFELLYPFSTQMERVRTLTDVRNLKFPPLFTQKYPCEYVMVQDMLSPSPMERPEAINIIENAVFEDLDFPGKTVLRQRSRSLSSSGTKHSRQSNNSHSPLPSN", "test": "PERK enzyme assay (HTRF)", "format": "biochemical", "settings": "500 μM ATP; at least one experimental run; read-out: PERK Enzyme (500 μM ATP) IC50", "how_it_was_run": "(§1)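 HTRF read-out after 2 h of EDTA-quenched reactions, detecting phospho-eIF2α with Eu/APC reagents, gave IC50 values. Reaction: 0.75 nM GST-PERK, 30–60 min compound pre-incubation (max 1% DMSO), then 60 min with 40 nM biotin-eIF2α and 500 μM ATP, HEPES pH 7.5 buffer.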", "units": {"IC50": "nM"}, "values": [
      {"smiles": "CN1C(=O)N(c2ccc(-c3cn(C4CC4)c4ncnc(N)c34)c(F)c2)CC1c1ccc(F)cc1F", "note": "(single isomer, unassigned) [Example 137, 1-(4-(4-amino-7-cyclopropyl-7H-pyrrolo[2,3-d]pyrimidin-5-yl)-3-fluorophenyl)-4-(2,4-difluorophenyl)-3-methylimidazolidin-2-one]", "IC50": 17.8},
      {"smiles": "CN1C(=O)N(c2ccc(-c3cn(C)c4ncnc(N)c34)c(F)c2)CC1c1ccc(F)c(F)c1", "note": "(single isomer, unassigned) [Example 115, 1-(4-(4-amino-7-methyl-7H-pyrrolo[2,3-d]pyrimidin-5-yl)-3-fluorophenyl)-4-(3,4-difluorophenyl)-3-methylimidazolidin-2-one]", "IC50": 2.4},
      {"smiles": "CCN1C(=O)N(c2ccc(-c3cn(C)c4ncnc(N)c34)c(F)c2)CC1c1cccc(C)c1", "note": "(stereo not shown) [Example 36, 1-(4-(4-amino-7-methyl-7H-pyrrolo[2,3-d]pyrimidin-5-yl)-3-fluorophenyl)-3-ethyl-4-(m-tolyl)imidazolidin-2-one]", "IC50": 462},
      {"smiles": "CN1C(=O)N(c2ccc(-c3cn(C4CC4)c4ncnc(N)c34)c(F)c2)CC1c1ccc(F)cc1F", "note": "(single isomer, unassigned) [Example 154, 1-(4-(4-amino-7-cyclopropyl-7H-pyrrolo[2,3-d]pyrimidin-5-yl)-3-fluorophenyl)-4-(2,4-difluorophenyl)-3-methylimidazolidin-2-one]", "IC50": 988}
    ]},
    {"molecular_target": "T1, PERK", "test": "PERK enzyme assay (HTRF)", "format": "biochemical", "settings": "PERK Enzyme (500 μM ATP) IC50; at least one experimental run; read-out: PERK Activity", "how_it_was_run": "as §1", "units": {"IC50": "nM"}, "values": [
      {"smiles": "CCN1C(=O)N(c2ccc(-c3cn(C)c4ncnc(N)c34)c(F)c2)CC1c1cc(F)cc(C(F)(F)F)c1", "note": "(stereo not shown) [Example 85, 1-(4-(4-amino-7-methyl-7H-pyrrolo[2,3-d]pyrimidin-5-yl)-3-fluorophenyl)-3-ethyl-4-(3-fluoro-5-(trifluoromethyl)phenyl)imidazolidin-2-one]", "IC50": "100 to 1000"},
      {"smiles": "CN1C(=O)N(c2ccc(-c3cn(C4CC4)c4ncnc(N)c34)c(F)c2)CC1c1ccc(F)cc1F", "note": "(single isomer, unassigned) [Example 137, 1-(4-(4-amino-7-cyclopropyl-7H-pyrrolo[2,3-d]pyrimidin-5-yl)-3-fluorophenyl)-4-(2,4-difluorophenyl)-3-methylimidazolidin-2-one]", "IC50": "< 100"},
      {"smiles": "CCN1C(=O)N(c2ccc(-c3csc4ncnc(N)c34)c(F)c2)CC1c1cc(F)ccc1F", "note": "(stereo not shown) [Example 42, 1-(4-(4-aminothieno[2,3-d]pyrimidin-5-yl)-3-fluorophenyl)-4-(2,5-difluorophenyl)-3-ethylimidazolidin-2-one]", "IC50": "100 to 1000"},
      {"smiles": "CCN1C(=O)N(c2ccc(-c3cn(C)c4ncnc(N)c34)c(F)c2)CC1c1ccc(F)cc1F", "note": "(stereo not shown) [Example 23, 1-(4-(4-amino-7-methyl-7H-pyrrolo[2,3-d]pyrimidin-5-yl)-3-fluorophenyl)-4-(2,4-difluorophenyl)-3-ethylimidazolidin-2-one]", "IC50": "100 to 1000"},
      {"smiles": "CN1C(=O)N(c2ccc(-c3cn(C)c4ncnc(N)c34)c(F)c2)CC1c1ccc(F)cc1F", "note": "(stereo not shown) [Example 24, 1-(4-(4-amino-7-methyl-7H-pyrrolo[2,3-d]pyrimidin-5-yl)-3-fluorophenyl)-4-(2,4-difluorophenyl)-3-methylimidazolidin-2-one]", "IC50": "100 to 1000"},
      {"smiles": "CN1C(=O)N(c2ccc(-c3cn(C)c4ncnc(N)c34)c(F)c2)CC1c1cccc(Cl)c1F", "note": "(stereo not shown) [Example 26, 1-(4-(4-amino-7-methyl-7H-pyrrolo[2,3-d]pyrimidin-5-yl)-3-fluorophenyl)-4-(3-chloro-2-fluorophenyl)-3-methylimidazolidin-2-one]", "IC50": "100 to 1000"},
      {"smiles": "CN1C(=O)N(c2ccc(-c3cn(C4CC4)c4ncnc(N)c34)c(F)c2)CC1c1cc(F)cc(F)c1", "note": "(racemic) [Example 175, 1-(4-(4-amino-7-cyclopropyl-7H-pvrrolo[2,3-d]pyrimidin-5-yl)-3-fluorophenyl)-4-(3,5-difluorophenyl)-3-methylimidazolidin-2-one]", "IC50": "< 100"},
      {"smiles": "Cc1nc(N)c2c(-c3ccc(N4CC(c5ccc(F)cc5F)N(C)C4=O)cc3F)cn(C3CC3)c2n1", "note": "(single isomer, unassigned) [Example 9, 1-(4-(4-amino-7-cyclopropyl-2-methyl-7H-pyrrolo[2,3-d]pyrimidin-5-yl)-3-fluorophenyl)-4-(2,4-difluorophenyl)-3-methylimidazolidin-2-one]", "IC50": "> 1000"},
      {"smiles": "CN1C(=O)N(c2ccc(-c3cn(C)c4ncnc(N)c34)cn2)CC1c1cc(F)ccc1F", "note": "(stereo not shown) [Example 40, 1-(5-(4-amino-7-methyl-7H-pyrrolo[2,3-d]pyrimidin-5-yl)pyridin-2-yl)-4-(2,5-difluorophenyl)-3-methylimidazolidin-2-one]", "IC50": "100 to 1000"},
      {"smiles": "CN1C(=O)N(c2ccc(-c3cn(C)c4ncnc(N)c34)c(F)c2)CC1c1ccc(F)c(F)c1", "note": "(single isomer, unassigned) [Example 115, 1-(4-(4-amino-7-methyl-7H-pyrrolo[2,3-d]pyrimidin-5-yl)-3-fluorophenyl)-4-(3,4-difluorophenyl)-3-methylimidazolidin-2-one]", "IC50": "< 100"},
      {"smiles": "Cc1nc(N)c2c(-c3ccc(N4CC(c5ccc(F)cc5F)N(C)C4=O)cc3F)c(C)n(C)c2n1", "note": "(single isomer, unassigned) [Example 10, 1-(4-(4-amino-2,6,7-trimethyl-7H-pyrrolo[2,3-d]pyrimidin-5-yl)-3-fluorophenyl)-4-(2,4-difluorophenyl)-3-methylimidazolidin-2-one]", "IC50": "> 1000"},
      {"smiles": "CCN1C(=O)N(c2ccc(-c3cn(C)c4ncnc(N)c34)c(F)c2)CC1c1cc(F)cc(F)c1", "note": "(single isomer, unassigned) [Example 171, 1-(4-(4-amino-7-methyl-7H-pyrrolo[2,3-d]pyrimidin-5-yl)-3-fluorophenyl)-4-(3,5-difluorophenyl)-3-ethylimidazolidin-2-one]", "IC50": "< 100"},
      {"smiles": "Cc1cc(N2CC(c3cc(F)cc(F)c3)CC2=O)ccc1-c1cn(C)c2ncnc(N)c12", "note": "(stereo not shown) [Example 5, 1-(4-(4-Amino-7-methyl-7H-pyrrolo[2,3-d]pyrimidin-5-yl)-3-methylphenyl)-4-(3,5-difluorophenyl)pyrrolidin-2-one]", "IC50": "100 to 1000"},
      {"smiles": "CCN1C(=O)N(c2ccc(-c3cn(C)c4ncnc(N)c34)c(F)c2)CC1c1cccc(C)n1", "note": "(stereo not shown) [Example 50, 1-(4-(4-amino-7-methyl-7H-pyrrolo[2,3-d]pyrimidin-5-yl)-3-fluorophenyl)-3-ethyl-4-(6-methylpyridin-2-yl)imidazolidin-2-one]", "IC50": "100 to 1000"},
      {"smiles": "CC(C)n1cc(-c2ccc(N3CC(c4cc(F)ccc4F)N(C)C3=O)cc2F)c2c(N)ncnc21", "note": "(stereo not shown) [Example 43, 1-(4-(4-amino-7-isopropyl-7H-pyrrolo[2,3-d]pyrimidin-5-yl)-3-fluorophenyl)-4-(2,5-difluorophenyl)-3-methylimidazolidin-2-one]", "IC50": "< 100"},
      {"smiles": "CCN1C(=O)N(c2ccc(-c3cn(C)c4ncnc(N)c34)c(F)c2)CC1c1cccc(C)c1", "note": "(stereo not shown) [Example 36, 1-(4-(4-amino-7-methyl-7H-pyrrolo[2,3-d]pyrimidin-5-yl)-3-fluorophenyl)-3-ethyl-4-(m-tolyl)imidazolidin-2-one]", "IC50": "100 to 1000"},
      {"smiles": "CN1C(=O)N(c2ccc(-c3cn(C)c4ncnc(N)c34)c(F)c2)CC1c1cccc(OC(F)F)c1", "note": "(stereo not shown) [Example 73, 1-(4-(4-amino-7-methyl-7H-pyrrolo[2,3-d]pyrimidin-5-yl)-3-fluorophenyl)-4-(3-(difluoromethoxy)phenyl)-3-methylimidazolidin-2-one]", "IC50": "100 to 1000"},
      {"smiles": "CCN1C(=O)N(c2ccc(-c3cn(C)c4ncnc(N)c34)c(F)c2)CC1c1cc(C2CC2)ccc1F", "note": "(stereo not shown) [Example 48, 1-(4-(4-amino-7-methyl-7H-pyrrolo[2,3-d]pyrimidin-5-yl)-3-fluorophenyl)-4-(5-cyclopropyl-2-fluorophenyl)-3-ethylimidazolidin-2-one]", "IC50": "100 to 1000"},
      {"smiles": "Cn1cc(-c2ccc(N3CC(c4cc(F)cc(F)c4)CC3=O)cc2)c2c(N)ncnc21", "note": "(stereo not shown) [Example 29, 1-(4-(4-amino-7-methyl-7H-pyrrolo[2,3-d]pyrimidin-5-yl)phenyl)-4-(3,5-difluorophenyl)pyrrolidin-2-one]", "IC50": "100 to 1000"},
      {"smiles": "CN1C(=O)N(c2ccc(-c3cn(C)c4ncnc(N)c34)c(F)c2)CC1c1cc(C2CC2)ccc1F", "note": "(stereo not shown) [Example 49, 1-(4-(4-amino-7-methyl-7H-pyrrolo[2,3-d]pyrimidin-5-yl)-3-fluorophenyl)-4-(5-cyclopropyl-2-fluorophenyl)-3-methylimidazolidin-2-one]", "IC50": "100 to 1000"},
      {"smiles": "CN1C(=O)N(c2ccc(-c3cn(C4CC4)c4ncnc(N)c34)c(F)c2)CC1c1ccc(F)cc1F", "note": "(single isomer, unassigned) [Example 154, 1-(4-(4-amino-7-cyclopropyl-7H-pyrrolo[2,3-d]pyrimidin-5-yl)-3-fluorophenyl)-4-(2,4-difluorophenyl)-3-methylimidazolidin-2-one]", "IC50": "100 to 1000"},
      {"smiles": "CN1C(=O)N(c2ccc(-c3cn(C4CC4)c4ncnc(N)c34)c(F)c2)CC1c1ccc(F)c(Cl)c1", "note": "(stereo not shown) [Example 132, 1-(4-(4-amino-7-cyclopropyl-7H-pyrrolo[2,3-d]pyrimidin-5-yl)-3-fluorophenyl)-4-(3-chloro-4-fluorophenyl)-3-methylimidazolidin-2-one]", "IC50": "< 100"},
      {"smiles": "CN1C(=O)N(c2ccc(-c3cn(C)c4ncnc(N)c34)c(F)c2)CC1c1cc(F)cc(Cl)c1", "note": "(single isomer, unassigned) [Example 52, 1-(4-(4-amino-7-methyl-7H-pyrrolo[2,3-d]pyrimidin-5-yl)-3-fluorophenyl)-4-(3-chloro-5-fluorophenyl)-3-methylimidazolidin-2-one]", "IC50": "100 to 1000"},
      {"smiles": "CN1C(=O)N(c2ccc(-c3cn(C)c4ncnc(N)c34)c(F)c2)CC1C1CCCCC1", "note": "(single isomer, unassigned) [Example 63, 1-(4-(4-amino-7-methyl-7H-pyrrolo[2,3-d]pyrimidin-5-yl)-3-fluorophenyl)-4-cyclohexyl-3-methylimidazolidin-2-one]", "IC50": "< 100"}
    ]}
  ]
}
